Structures are written as SMILES.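 The compound was tested at five concentrations on cells cultured in 96-well plates, with a 48-hour exposure period. GI50: concentration for 50% inhibition of growth.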 Active and inactive are the calls of the source. Rule as the data show it: active = GI50 up to about 1.1 µM and inactive = higher. Some results are limits rather than exact numbers.

This note sets out measurements from ChEMBL document CHEMBL1201862, “PubChem BioAssay data set” (2004).

Test systems include HOP-18; SNB-78; M19-MEL; XF498; DLD-1; RXF 631; LXFL 529; DMS-114; DMS-273.
Holding throughout (assay): growth of human tumour cells (NCI), 48 h

For the compound `CC1=C(C(=O)Nc2ccccc2C)C(c2ccccc2C)C(C(=O)Nc2ccccc2C)=C(C)N1`, the GI50 with HOP-18 is 18.4 µM (inactive); in the test on SNB-78, 33 µM (inactive); with M19-MEL it was 21.7 µM (inactive); with XF498, 18.7 µM (inactive); with DLD-1, 14.7 µM (inactive); in the test on RXF 631, 26.1 µM (inactive). The GI50 in the test on LXFL 529 is > 10 µM (inactive); in the test on DMS-114, 26.6 µM (inactive).
Regarding `C[N+]1=c2c3cccc4cccc(c(=O)n2CCC1)c43`, the GI50 is 24.4 µM (inactive) in the test on DMS-273; 53.8 µM (inactive) with HOP-18; 29 µM (inactive) in the test on SNB-78; 17.9 µM (inactive) in the test on M19-MEL; 18.6 µM (inactive) with XF498; 21.4 µM (inactive) with DLD-1. Also, the GI50 in the test with LXFL 529 is 17.6 µM (inactive); in the test on DMS-114, 20.6 µM (inactive).
Turning to `Cc1nc2c(o1)C(=O)c1ccccc1/C2=N\c1ccccc1`, the GI50 is 2.49 µM (inactive) in the test with DMS-273; 1.85 µM (inactive) in the test with HOP-18; 3.22 µM (inactive) with SNB-78; 1.82 µM (inactive) with M19-MEL; 2.86 µM (inactive) with XF498; 13.7 µM (inactive) with DLD-1. The GI50 is > 10 µM (inactive) in the test with RXF 631, 3.23 µM (inactive) in the test on LXFL 529 and 1.48 µM (inactive) in the test on DMS-114.
Take `O=C(c1ccccc1)C1OC12C(=O)Nc1c(Cl)cc(Cl)cc12` (configuration not stated): the GI50 in the test with DMS-273 is 15.9 µM (inactive); in the test on HOP-18, > 54.7 µM (inactive); in the test on SNB-78 it was > 50.5 µM (inactive); with M19-MEL it was 27 µM (inactive); with XF498, 10.7 µM (inactive); in the test on DLD-1, 18.6 µM (inactive). The GI50 is 27 µM (inactive) with RXF 631, 23.6 µM (inactive) in the test on LXFL 529 and 30.1 µM (inactive) in the test with DMS-114.
As to `[O-][Cl+3]([O-])([O-])O.c1ccc(/N=c2\snc(-c3ccccc3)s2)cc1`, the GI50 with DMS-273, in the test on HOP-18, in the test on SNB-78, with M19-MEL, with DLD-1 and in the test on LXFL 529 was > 100 µM (inactive) throughout. For the same compound, in the test on DMS-114, the GI50 is > 100 µM (inactive).
As for `O=C(Cc1nc(-c2ccccc2)cc(=O)n1-c1ccccc1Cl)c1ccncc1`, the GI50 in the test on DMS-273, with HOP-18, with SNB-78, in the test with M19-MEL, in the test with DLD-1 and with RXF 631 was > 100 µM (inactive) each time. Further, the GI50 in the test on LXFL 529 and in the test with DMS-114 was > 100 µM (inactive) in each case.
With `COC(=O)CCC1=NOC(CC2CC(CCC(=O)OC)=NO2)C1` (configuration not stated), the GI50 in the test with DMS-273, in the test with HOP-18, in the test with SNB-78, in the test on M19-MEL, in the test with XF498 and with DLD-1 was > 100 µM (inactive) throughout. Further, the GI50 in the test on RXF 631, in the test with LXFL 529 and in the test with DMS-114 was > 100 µM (inactive) in each case.
In the case of `COC(=O)c1c(O)ccc(O)c1C(C(C)=O)C(C)=O`, the GI50 with DMS-273, with SNB-78, in the test on M19-MEL, in the test on XF498, in the test with DLD-1 and in the test with LXFL 529 was > 100 µM (inactive) in each case. Besides, the GI50 with DMS-114 is > 100 µM (inactive).
For `COc1ccc2nc3cc(Cl)ccc3c(SCC(=O)Nc3ccccc3-c3ccccc3NC(=O)CSc3c4ccc(Cl)cc4nc4ccc(OC)cc34)c2c1`, the GI50 in the test with DMS-273, in the test with HOP-18, in the test with SNB-78, in the test with M19-MEL, with XF498 and in the test with DLD-1 was > 100 µM (inactive) throughout. Also, the GI50 in the test with LXFL 529 and in the test with DMS-114 was > 100 µM (inactive) in each case.
Turning to `CCOC(=O)c1[nH]c(CN(C)Cc2[nH]c(C(=O)OCC)c(C)c2C(=O)OCc2ccccc2)c(C(=O)OCc2ccccc2)c1C`, the GI50 with DMS-273 was 10 µM (inactive); in the test with HOP-18, > 100 µM (inactive); in the test with SNB-78 it was > 100 µM (inactive); in the test with DLD-1, 33.9 µM (inactive); in the test with RXF 631, 4.11 µM (inactive); with LXFL 529, 13.1 µM (inactive). Moreover, in the test on DMS-114, the GI50 is 12.7 µM (inactive).
`CNC1=Nc2ccc(Cl)cc2C(c2ccccc2)=NN1C`: the GI50 in the test on DMS-273 was > 100 µM (inactive); in the test with SNB-78, > 100 µM (inactive); with M19-MEL, > 100 µM (inactive); with XF498, 31.6 µM (inactive); with DLD-1, > 100 µM (inactive); in the test on RXF 631, 74 µM (inactive). Besides, the GI50 with LXFL 529 was > 100 µM (inactive); in the test on DMS-114, 53.2 µM (inactive).
Regarding `COC(=O)C1C(C(=O)OC)C2C(=O)C3C(C(=O)OC)C(C(=O)OC)C3C(=O)C12` (configuration not stated), the GI50 in the test on DMS-273 was > 100 µM (inactive); in the test with HOP-18, > 100 µM (inactive); in the test with SNB-78 it was 64.3 µM (inactive); in the test on M19-MEL, > 100 µM (inactive); in the test with XF498 it was > 100 µM (inactive); with RXF 631 it was > 100 µM (inactive). In the test with LXFL 529, the GI50 was > 100 µM (inactive).
For the compound `CC[C@@]1(O)C(=O)OCc2c1cc1n(c2=O)Cc2c-1nc1ccccc1c2Cl`, the GI50 with DMS-273 was < 0.01 µM (active); in the test with HOP-18, 0.0598 µM (active); in the test with SNB-78 it was 2.65 µM (inactive); in the test with M19-MEL, 0.08 µM (active); with XF498, 0.0767 µM (active); in the test on DLD-1, 0.877 µM (active). The GI50 in the test with LXFL 529 is 0.935 µM (active); with DMS-114, < 0.0104 µM (active).
Consider `O=C1NC(=S)NC(=O)C1=Cc1ccc[nH]1`, for which the GI50 was 3.79 µM (inactive) in the test on DMS-273; 36.4 µM (inactive) in the test on HOP-18; 19.4 µM (inactive) in the test on SNB-78; 13.4 µM (inactive) in the test on M19-MEL; 17.7 µM (inactive) in the test with XF498; 6.85 µM (inactive) in the test on DLD-1. In addition, the GI50 with LXFL 529 was 10.3 µM (inactive); with DMS-114 it was 10.8 µM (inactive).
Turning to `NC1C2(CCCCCC2)NC(=O)C12CCCCCC2` (configuration not stated), the GI50 with DMS-273, with HOP-18, with SNB-78, in the test on XF498, in the test on DLD-1 and with RXF 631 was > 100 µM (inactive) throughout. The GI50 in the test with LXFL 529 and in the test with DMS-114 was > 100 µM (inactive) each time.
For the compound `CN/C(=N/C#N)NCc1ccccc1`, the GI50 in the test with DMS-273, in the test on SNB-78, in the test with M19-MEL, in the test with XF498, in the test with DLD-1 and in the test on LXFL 529 was > 100 µM (inactive) in each case. For the same compound, in the test on DMS-114, the GI50 was > 100 µM (inactive).
`C[N+]12c3ccccc3O[B-]1(c1ccccc1)Oc1ccccc12` (configuration not stated): the GI50 with DMS-273 was 29.2 µM (inactive); in the test on HOP-18 it was 42.9 µM (inactive); in the test on SNB-78, 47 µM (inactive); with DLD-1, 18.2 µM (inactive); in the test with LXFL 529, 28.4 µM (inactive); in the test on DMS-114, 17.6 µM (inactive).
`O=C1c2c(O)cccc2C(C(=O)CCCCC(=O)C2c3cccc(O)c3C(=O)c3c(O)cccc32)c2cccc(O)c21`: the GI50 in the test with DMS-273 was 1.63 µM (inactive); with HOP-18 it was 0.652 µM (active); with SNB-78, 0.55 µM (active); in the test on XF498 it was 0.501 µM (active); in the test with DLD-1 it was 1.04 µM (active); in the test with RXF 631 it was 0.78 µM (active). The GI50 in the test with LXFL 529 was 0.441 µM (active); in the test on DMS-114, 0.522 µM (active).
For `Cc1cccc(-c2cc(=O)c3cc(C)c(C)c(C(=O)O)c3o2)c1`, the GI50 with DMS-273, in the test on HOP-18, in the test on SNB-78, with M19-MEL, in the test on XF498 and in the test on DLD-1 was > 100 µM (inactive) in each case. Moreover, the GI50 in the test with RXF 631, in the test on LXFL 529 and in the test on DMS-114 was > 100 µM (inactive) each time.
Consider `C=C(C[N+](C)(C)C)N/N=C/c1oc(-c2ccc(OC)c(OC)c2)c(-c2ccc(OC)c(OC)c2)c1[N+](=O)[O-]`, for which the GI50 is 22.1 µM (inactive) in the test with HOP-18; 36.4 µM (inactive) in the test with SNB-78; 15.5 µM (inactive) in the test with M19-MEL; 23.7 µM (inactive) in the test on XF498; 19.9 µM (inactive) in the test with DLD-1; 22.9 µM (inactive) in the test on LXFL 529.
Regarding `Cc1ccc(S(=O)(=O)Nc2cccc(C)c2C)cc1`, the GI50 in the test on DMS-273 is 45.6 µM (inactive); in the test with HOP-18 it was > 100 µM (inactive); in the test with SNB-78 it was 62.1 µM (inactive); with M19-MEL, 67.5 µM (inactive); in the test on XF498, < 0.01 µM (active); with RXF 631 it was 66.1 µM (inactive). In addition, the GI50 in the test on LXFL 529 is 56.2 µM (inactive); in the test with DMS-114, 28.8 µM (inactive).
For `Cc1[nH]c2ccccc2c1C(=O)CC1(O)C(=O)Nc2c(Cl)cc(Cl)cc21` (configuration not stated), the GI50 in the test on DMS-273 was 49.1 µM (inactive); with HOP-18, 25.6 µM (inactive); in the test with SNB-78, 40.7 µM (inactive); with M19-MEL it was 9.31 µM (inactive); in the test with XF498, 18.2 µM (inactive); in the test on DLD-1 it was 44.9 µM (inactive). The GI50 was 29.4 µM (inactive) in the test with RXF 631, 16.4 µM (inactive) in the test with LXFL 529 and 24.3 µM (inactive) in the test on DMS-114.
